Source: ChEMBL document CHEMBL1128368, “Synthesis and serotonergic activity of N,N-dimethyl-2-[5-(1,2,4-triazol-1-ylmethyl)-1H-indol-3-yl]ethylamine and analogues: potent agonists for 5-HT1D receptors” (J Med Chem, 1995)

How the values were obtained:
[1] = Partition coefficient (logD7.4); conditions: octanol/water, pH 7.4
[2] = molecular target: 5-hydroxytryptamine receptor 1D (Sus scrofa, UniProt P79400); assay: Binding activity against 5-hydroxytryptamine 1D receptor from pig caudate membrane using [3H]5-HT as radioligand
Chain of 5-hydroxytryptamine receptor 1D (P79400 whole entry): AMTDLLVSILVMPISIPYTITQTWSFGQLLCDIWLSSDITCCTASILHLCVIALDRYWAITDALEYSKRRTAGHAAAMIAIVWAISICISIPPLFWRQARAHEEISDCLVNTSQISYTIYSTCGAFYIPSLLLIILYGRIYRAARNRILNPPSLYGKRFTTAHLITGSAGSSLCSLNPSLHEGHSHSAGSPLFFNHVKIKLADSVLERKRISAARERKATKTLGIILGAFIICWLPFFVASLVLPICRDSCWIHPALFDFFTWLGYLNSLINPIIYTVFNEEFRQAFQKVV

[3] = molecular target: T1, Serotonin 3 (5-HT3) receptor (Rattus norvegicus, UniProt P35563+Q9JJ16); assay: Inhibition of [3H]-Q-ICS 205-930 binding to rat cortex homogenate 5-hydroxytryptamine 3 receptor
T1 sequence (P35563 whole entry): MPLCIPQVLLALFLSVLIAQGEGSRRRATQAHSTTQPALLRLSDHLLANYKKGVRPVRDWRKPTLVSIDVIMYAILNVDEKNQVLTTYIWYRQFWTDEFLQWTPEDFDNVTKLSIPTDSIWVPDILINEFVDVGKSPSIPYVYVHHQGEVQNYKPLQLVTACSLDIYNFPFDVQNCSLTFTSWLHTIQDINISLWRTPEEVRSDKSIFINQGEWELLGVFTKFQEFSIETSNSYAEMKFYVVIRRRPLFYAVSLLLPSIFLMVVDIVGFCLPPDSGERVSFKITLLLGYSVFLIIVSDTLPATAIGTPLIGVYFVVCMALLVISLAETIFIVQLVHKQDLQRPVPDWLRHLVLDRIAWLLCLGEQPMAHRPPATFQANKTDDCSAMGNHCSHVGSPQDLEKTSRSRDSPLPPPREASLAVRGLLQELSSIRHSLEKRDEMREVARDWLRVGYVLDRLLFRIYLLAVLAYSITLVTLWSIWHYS
T1 sequence (Q9JJ16 whole entry): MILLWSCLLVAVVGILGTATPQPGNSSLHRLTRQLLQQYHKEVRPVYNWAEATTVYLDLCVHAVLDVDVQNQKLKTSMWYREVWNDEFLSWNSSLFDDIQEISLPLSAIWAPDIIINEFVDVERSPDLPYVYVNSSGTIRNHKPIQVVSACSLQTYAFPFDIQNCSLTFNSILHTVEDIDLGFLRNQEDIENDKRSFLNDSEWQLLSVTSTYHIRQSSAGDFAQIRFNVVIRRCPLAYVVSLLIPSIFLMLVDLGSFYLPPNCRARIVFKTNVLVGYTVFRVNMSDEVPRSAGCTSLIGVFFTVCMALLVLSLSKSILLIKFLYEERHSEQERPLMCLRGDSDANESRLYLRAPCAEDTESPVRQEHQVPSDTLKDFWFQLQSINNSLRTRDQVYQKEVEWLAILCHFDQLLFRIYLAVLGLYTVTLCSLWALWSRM

5-HT2C receptors [4] = molecular target: T2, 5-HT2C receptors (Sus scrofa, UniProt K7GSR7); assay: Binding activity against 5-hydroxytryptamine 2C receptor from pig cortex membrane using [3H]mesulergine as radioligand.
Oryctolagus cuniculus = species: Oryctolagus cuniculus; assay: Functional activity was determined by the contraction of New Zealand white rabbit saphenous vein.
[5] = Binding activity against 5-hydroxytryptamine 2C receptor from pig cortex membrane using [3H]mesulergine as radioligand.
[6] = molecular target: Serotonin 3 (5-HT3) receptor; assay: Binding activity against 5-hydroxytryptamine 1A receptor from human brain cortex using [3H]8-OH-DPAT[…] radioligand.
[7] = molecular target: T1, Serotonin 3 (5-HT3) receptor; assay: Binding activity radioligand.; format: protein-complex assay
5-HT2C receptors [8] = molecular target: T2, 5-HT2C receptors; assay: Binding activity against 5-hydroxytryptamine 2C receptor from pig cortex membrane using [3H]mesulergine as radioligand; NA Not Available

## CN(C)CCc1c[nH]c2ccc(Cc3ncn(C)n3)cc12
[1]
  logD: -1.01
[2]
  IC50: 200 nM

## CN(C)CCc1c[nH]c2ccc(Cn3cnnn3)cc12
[3]
  IC50: 1260 nM
5-HT2C receptors [4]
  IC50: 5010 nM
Oryctolagus cuniculus
  EC50: 200 nM

## CCn1nnc(Cc2ccc3[nH]cc(CCN(C)C)c3c2)n1
[3]
  IC50: 2510 nM
5-HT2C receptors [4]
  IC50: 1580 nM
Oryctolagus cuniculus
  EC50: 631 nM

## CN(C)CCc1c[nH]c2ccc(Cc3nc(N)no3)cc12
[5]
  pIC50: 5.9
5-HT2C receptors [4]
  IC50: 398 nM

## CN(C)CCc1c[nH]c2ccc(Cn3nccn3)cc12
[1]
  logD: -0.2
[2]
  IC50: 251 nM

## CN(C)CCc1c[nH]c2ccc(Cc3nncn3C)cc12
5-HT2C receptors [4]
  IC50: > 10000 nM

## Cc1nccn1Cc1ccc2[nH]cc(CCN(C)C)c2c1
[3]
  IC50: 1580 nM
5-HT2C receptors [4]
  IC50: 7940 nM
Oryctolagus cuniculus
  EC50: 631 nM

## CN(C)CCc1c[nH]c2ccc(Cn3cncn3)cc12 [RIZATRIPTAN]
[6]
  pIC50: < 5
[1]
  logD: -0.74
[7]
  IC50: 3980 nM
5-HT2C receptors [4]
  IC50: 6310 nM
Oryctolagus cuniculus
  EC50: 251 nM

## CN(C)CCc1c[nH]c2ccc(-n3cncn3)cc12
[3]
  IC50: 10000 nM
5-HT2C receptors [4]
  IC50: 10000 nM
Oryctolagus cuniculus
  EC50: 63.1 nM

## CN(C)CCc1c[nH]c2ccc(Cn3ccnc3)cc12
[1]
  logD: -0.53
[3]
  IC50: 1260 nM
5-HT2C receptors [4]
  IC50: 3160 nM
Oryctolagus cuniculus
  EC50: 501 nM

## CN(C)CCc1c[nH]c2ccc(Cc3nnn(C)n3)cc12
[3]
  IC50: 2510 nM
5-HT2C receptors [4]
  IC50: 2510 nM
Oryctolagus cuniculus
  EC50: 1000 nM

## CCn1nnnc1Cc1ccc2[nH]cc(CCN(C)C)c2c1
[3]
  IC50: > 10000 nM
5-HT2C receptors [4]
  IC50: > 10000 nM
Oryctolagus cuniculus
  EC50: 398 nM

## CN(C)CCc1c[nH]c2ccc(Cc3ncnn3C)cc12
[1]
  logD: -0.75
[3]
  IC50: 10000 nM
5-HT2C receptors [4]
  IC50: 3980 nM
Oryctolagus cuniculus
  EC50: 631 nM

## Cc1nccn1-c1ccc2[nH]cc(CCN(C)C)c2c1
[1]
  logD: -0.13
[3]
  IC50: 3160 nM
5-HT2C receptors [4]
  IC50: > 10000 nM
Oryctolagus cuniculus
  EC50: 158 nM

## CN(C)CCc1c[nH]c2ccc(Cn3ccnn3)cc12
5-HT2C receptors [8]
  IC50: 6310 nM
Oryctolagus cuniculus
  EC50: 1000 nM

## CN(C)CCc1c[nH]c2ccc(Cc3nnn[nH]3)cc12
5-HT2C receptors [4]
  IC50: > 10000 nM

## CN(C)CCc1c[nH]c2ccc(Cn3ncnn3)cc12
[1]
  logD: -0.34
[3]
  IC50: 3160 nM
5-HT2C receptors [4]
  IC50: 2000 nM
Oryctolagus cuniculus
  EC50: 200 nM

## CN(C)CCc1c[nH]c2ccc(Cc3nnnn3C)cc12
[3]
  IC50: 5010 nM
5-HT2C receptors [4]
  IC50: > 10000 nM
Oryctolagus cuniculus
  EC50: 251 nM
